From publication PMC7756341, “Liposomal FRET Assay Identifies Potent Drug‐Like Inhibitors of the Ceramide Transport Protein (CERT)” (Chemistry (Weinheim an Der Bergstrasse, Germany), 2020) come the findings set out here.

This assay has as its target T1, CERT (Homo sapiens, UniProt Q9Y5P4).
T1 construct: made in house; host or cells: E. coli BL21 (DE3), pET-28a(+)
T1 sequence (Q9Y5P4 1-598 isoform Q9Y5P4-2): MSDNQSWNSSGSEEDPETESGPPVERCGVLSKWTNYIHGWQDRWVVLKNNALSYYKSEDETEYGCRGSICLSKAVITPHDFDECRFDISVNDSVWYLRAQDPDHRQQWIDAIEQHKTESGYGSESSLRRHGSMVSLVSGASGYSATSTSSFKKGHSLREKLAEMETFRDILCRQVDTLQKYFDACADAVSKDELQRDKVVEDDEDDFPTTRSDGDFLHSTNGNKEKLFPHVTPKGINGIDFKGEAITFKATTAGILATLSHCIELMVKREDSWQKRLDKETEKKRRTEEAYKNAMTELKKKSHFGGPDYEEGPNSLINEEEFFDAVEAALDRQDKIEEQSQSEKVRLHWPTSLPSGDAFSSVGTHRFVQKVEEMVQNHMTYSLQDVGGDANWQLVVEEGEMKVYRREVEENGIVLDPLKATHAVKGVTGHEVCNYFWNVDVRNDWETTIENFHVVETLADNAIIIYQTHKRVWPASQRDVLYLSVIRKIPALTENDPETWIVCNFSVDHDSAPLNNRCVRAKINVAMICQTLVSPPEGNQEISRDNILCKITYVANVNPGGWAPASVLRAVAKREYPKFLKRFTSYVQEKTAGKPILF
Nature of the assay: NR-ceramide fluorescence competition assay. It is filed as binding. As to conditions: 1 μM Nile red ceramide. The text has this:
Having the identified hits from CERT-transfer assay, we were interested in further understanding the relationship between the CERT-transfer inhibitory activity and CERT-binding affinity. With this goal in mind, we have developed a homogenous competitive assay based on the binding of fluorescently-labeled ceramide to CERT-protein (Fig S6). It’s well known that Nile Red is […]
than in hydrophilic one. Based on this knowledge, we have designed a fluorescently-labeled probe in which the Nile Red-tag was incorporated into the ceramide fatty acid moiety. The NR-ceramide […]
excellent signal-to-noise ratio (28-fold, Fig S7.A). Equilibration takes ~1h of incubation at 30°C.
Furthermore, this assay is a simple mix-and read format and uses only low amounts of fluorophore (1µM) and CERT-protein (12.5µg/assay).
The assay was performed in non-binding black-bottom 96-well microplate (Greiner Bio-One). To each well was added 1µL HPA12 (final concentration 2.5µM) or DMSO, followed by 98 µL of the CERT aliquot (12.5µg/well). After the mixture was incubated for 40 min at 30°C, 1µL NR-ceramide (final concentration 1µM) was added. Controls were triplicates of 10mM Tris.HCl buffer (pH 7.4, 250 mM sucrose) with 2µL DMSO, CERT aliquot (12.5µg/well) with 2µL DMSO, and 1µL NR-ceramide (final concentration 1µM) in 10mM Tris.HCl buffer (pH 7.4, 250 mM sucrose) with 1µL DMSO. The plate was then sealed with transparent Thermowell seal tape and placed in the microplate reader (LABTECH) at 30°C with shaking. The fluorescence was measured from the top over 80min (number of cycles 35, delay 70 sec) with excitation filter 540 nm and emission filter 640 nm. The competitive CERT-binding activity was calculated using the formula: Ix = I(À2-Y)/I0(À1-X), where À1 is the average of the florescence of the control of NR-ceramide in Tris.HCl buffer, X is the average of the fluorescence of the buffer alone, À2 is the fluorescence average of the assay mixture, Y is the fluorescence average of the CERT aliquot with inhibitor/DMSO (Fig […]
It is however lower than the differentiation in the transfer assay (Fig S8B).
3.2 High throughput screening for CERT-activity and Data analysis
In order to validate the performance of developed assay in high-throughput screening format, the hits from ‘confirmed-hit group’ (45 hits) were screened for their competitive CERT-binding activity. The assay was performed as mentioned in the previous sub-section 3.1. Briefly, 1µL tested compound (final concentration 1µM, 2.5µM, 5µM, 10µM) or DMSO for control, and 98 µL CERT stock solution were sequentially added into a non-binding 96-well microplate. The plate was sealed and incubated at 30°C for 40 min, before 1µL NR-ceramide (final concentration 1µM) was added.
Controls per plate were triplicates of 10mM Tris.HCl buffer (pH 7.4, 250 mM sucrose) with 2µL DMSO, CERT aliquot (12.5µg/well) with 2µL DMSO, 1µL NR-ceramide (final concentration 1µM) in 10mM Tris.HCl buffer (pH 7.4, 250 mM sucrose), and HPA12 as a reference inhibitor (final concentration of 1µM, and 2.5µM, 5µM). The plate was sealed with transparent Thermowell seal tape and the assay was allowed to proceed as described above using excitation filter 540 nm and emission filter 640 nm. The competitive CERT-binding activity was calculated using the formula: Ix = I(À2-Y)/I0(À1-X), where À1 is the average of the florescence of the control 1µL NR-ceramide in Tris.HCl buffer, X is the average of the fluorescence of the buffer alone, À2 is the average of the fluorescence of assay mixture treated with tested compound or DMSO, Y is the average of the fluorescence of CERT aliquot with inhibitor/DMSO.
As to `CCCC(=O)OCOC(=O)C1=C(C)NC(C)=C(C(=O)OC)C1c1cccc(Cl)c1Cl` (centres unmarked) [6B11, Clevidipine butyrate], the “activity in the NR ceramide competition assay” value (“activity” for short) is listed as “high activity”.
As to `O=C(NC1CCN(CCCCC2(C(=O)NCC(F)(F)F)c3ccccc3-c3ccccc32)CC1)c1ccccc1-c1ccc(C(F)(F)F)cc1` [8E8, lomitapide], the “activity” value is “high activity”.
As to `CC1=NN(c2ccc(C)c(C)c2)C(=O)/C1=N\Nc1cccc(-c2cccc(C(=O)O)c2)c1O` [17C9, Eltrombopag], the “activity” value is listed as “very strong competition”.
As for `Cc1cc(C2=NOC(c3cc(Cl)cc(Cl)c3)(C(F)(F)F)C2)ccc1C(=O)NCC(=O)NCC(F)(F)F` (centres unmarked) [20D5, Fluralaner], the “activity” value is on record as “high activity”.
As for `CCCCCCCCCCCC(=O)NC(CO)CC(O)c1ccccc1` (centres unmarked) [HPA-12, N-(3Hydroxy-1-hydroxymethyl-3-phenylpropyl)-dodecamide], the “activity” value is recorded as “reverted to approximately the initial value”.
